US8735414B2 (priority 2009, dated 2014)

Experiments:
[1] = test system: bicistronic HCV replicon (replicon RNA, GenBank Accession No. AJ242654); experiment: HCV Replicon Assay; format: cell-based; conditions: Hepatitis C virus, 72 h, read-out: Replicon IC50

Row | SMILES | IC50 [1] [nM] | melting point [°C]
1 | Cc1cc2c(cc1F)c(C#N)c(-c1ccc(S(=O)(=O)N[C@@H](C)C(F)(F)F)cn1)n2-c1ncccc1Cl [compound 971, 6-[1-(3-chloropyridin-2-yl)-3-cyano-5-fluoro-6-methyl-1H-indol-2-yl]-N-[(2S)-1,1,1-trifluoropropan-2-yl]pyridine-3-sulfonamide] | 500 to 2000 | 221 to 225
2 | Cc1ccc(-n2c(-c3ncc(S(=O)(=O)NC(C)C)cn3)c(C#N)c3cc(F)ccc32)cc1 [compound 357, 2-[3-cyano-5-fluoro-1-(4-methylphenyl)-1H-indol-2-yl]-N-(propan-2-yl)pyrimidine-5-sulfonamide] | < 500 | 200 to 202
3 | Cc1cc2c(cc1F)c(C#N)c(-c1ccc(S(=O)(=O)N[C@@H](C)C(F)(F)F)cn1)n2-c1cccnn1 [compound 892, 6-[3-cyano-5-fluoro-6-methyl-1-(pyridazin-3-yl)-1H-indol-2-yl]-N-[(2S)-1,1,1-trifluoropropan-2-yl]pyridine-3-sulfonamide] | < 500 | 245 to 250
4 | Cc1ccc2c(c1)c(C#N)c(-c1ncc(S(=O)(=O)NC(C)C)cn1)n2CC1CC1 [compound 388, 2-[3-cyano-1-(cyclopropylmethyl)-5-methyl-1H-indol-2-yl]-N-(propan-2-yl)pyrimidine-5-sulfonamide] | 500 to 2000 | 219 to 222
5 | CCc1ccc2c(c1)c(C#N)c(-c1ccc(S(=O)(=O)NC(CF)CF)cn1)n2C1CCC1 [compound 258, 6-(3-cyano-1-cyclobutyl-5-ethyl-1H-indol-2-yl)-N-(1,3-difluoropropan-2-yl)pyridine-3-sulfonamide] | < 500 | 163 to 164
6 | N#Cc1c(-c2ncc(S(=O)(=O)NC(CF)CF)cn2)n(-c2ccccn2)c2cc(Cl)ccc12 [compound 450, 2-[6-chloro-3-cyano-1-(pyridin-2-yl)-1H-indol-2-yl]-N-(1,3-difluoropropan-2-yl)pyrimidine-5-sulfonamide] | < 500 | 234 to 235
7 | C[C@H](NS(=O)(=O)c1cnc(-c2c(C#N)c3ccc(OC(F)F)cc3n2C2CCCCC2)nc1)C1CC1 [compound 471, 2-[3-cyano-1-cyclohexyl-6-(difluoromethoxy)-1H-indol-2-yl]-N-[(1S)-1-cyclopropylethyl]pyrimidine-5-sulfonamide] | < 500 | 150 to 152
8 | CC(C)n1c(-c2ccc(S(=O)(=O)N[C@@H](C)C(F)(F)F)cn2)c(C#N)c2ccc(OC(F)F)cc21 [compound 359, 6-[3-cyano-6-(difluoromethoxy)-1-(propan-2-yl)-1H-indol-2-yl]-N-[(2S)-1,1,1-trifluoropropan-2-yl]pyridine-3-sulfonamide] | < 500 | 163 to 166
9 | C[C@H](NS(=O)(=O)c1ccc(-c2c(C#N)c3ccc(CC(F)F)cc3n2C2CCC2)nc1)C1CC1 [compound 590, 6-[3-cyano-1-cyclobutyl-6-(2,2-difluoroethyl)-1H-indol-2-yl]-N-[(1S)-1-cyclopropylethyl]pyridine-3-sulfonamide] | < 500 | 146 to 155
10 | Cc1cc(S(=O)(=O)N[C@@H](C)C(F)(F)F)cnc1-c1c(C#N)c2cc(F)c(OC(F)F)cc2n1C1CCC1 [compound 827, 6-[3-cyano-1-cyclobutyl-6-(difluoromethoxy)-5-fluoro-1H-indol-2-yl]-5-methyl-N-[(2S)-1,1,1-trifluoropropan-2-yl]pyridine-3-sulfonamide] | < 500 | 150 to 155
11 | C[C@H](NS(=O)(=O)c1cnc(-c2c(C#N)c3ccc(OC(F)F)cc3n2C2CCCC2)nc1)C(F)(F)F [compound 326, 2-[3-cyano-1-cyclopentyl-6-(difluoromethoxy)-1H-indol-2-yl]-N-[(2S)-1,1,1-trifluoropropan-2-yl]pyrimidine-5-sulfonamide] | < 500 | 231 to 232
12 | CCCn1c(-c2ccc(S(=O)(=O)N[C@H](C)C(F)(F)F)cn2)c(C#N)c2cc(F)c(OC(F)F)cc21 [compound 788, 6-[3-cyano-6-(difluoromethoxy)-5-fluoro-1-propyl-1H-indol-2-yl]-N-[(2R)-1,1,1-trifluoropropan-2-yl]pyridine-3-sulfonamide] | < 500 | 160 to 166
13 | Cc1cc2c(cc1F)c(C#N)c(-c1ccc(S(=O)(=O)NC(CF)CF)cn1)n2C1CCC1 [compound 108, 6-(3-cyano-1-cyclobutyl-5-fluoro-6-methyl-1H-indol-2-yl)-N-(1,3-difluoropropan-2-yl)pyridine-3-sulfonamide] | < 500 | 186 to 188
14 | Cc1ccc2c(c1)c(C#N)c(-c1ncc(S(=O)(=O)NC(C)C)cn1)n2C(C)C [compound 565, 2-[3-cyano-5-methyl-1-(propan-2-yl)-1H-indol-2-yl]-N-(propan-2-yl)pyrimidine-5-sulfonamide] | < 500 | 175 to 177
15 | Cc1cc2c(cc1F)c(C(N)=O)c(-c1ccc(S(=O)(=O)NC3(C(F)(F)F)CC3)cn1)n2C1CCCC1 [compound 730, 1-cyclopentyl-5-fluoro-6-methyl-2-(5-{[1-(trifluoromethyl)cyclopropyl]sulfamoyl}pyridin-2-yl)-1H-indole-3-carboxamide] | < 500 | 220 to 221
16 | Cc1ccc2c(C#N)c(-c3ncc(S(=O)(=O)NC(CF)CF)cn3)n(-c3ccccc3)c2c1 [compound 260, 2-(3-cyano-6-methyl-1-phenyl-1H-indol-2-yl)-N-(1,3-difluoropropan-2-yl)pyrimidine-5-sulfonamide] | < 500 | 169 to 171
17 | CCc1cc2c(cc1F)c(C#N)c(-c1ccc(S(=O)(=O)NC(C)(C)C(F)(F)F)cn1)n2C1CCCC1 [compound 672, 6-(3-cyano-1-cyclopentyl-6-ethyl-5-fluoro-1H-indol-2-yl)-N-(1,1,1-trifluoro-2-methylpropan-2-yl)pyridine-3-sulfonamide] | < 500 | 142 to 143
18 | N#Cc1c(-c2ccc(S(=O)(=O)NC3CC(F)(F)C3)cn2)n(C2CCC2)c2cc(Cl)ccc12 [compound 244, 6-(6-chloro-3-cyano-1-cyclobutyl-1H-indol-2-yl)-N-(3,3-difluorocyclobutyl)pyridine-3-sulfonamide] | 2000 to 5000 | 135 to 138
19 | CC(C)n1c(-c2ncc(S(=O)(=O)NC(CF)CF)cn2)c(C#N)c2ccc(OC(F)F)cc21 [compound 137, 2-[3-cyano-6-(difluoromethoxy)-1-(propan-2-yl)-1H-indol-2-yl]-N-(1,3-difluoropropan-2-yl)pyrimidine-5-sulfonamide] | < 500 | 219 to 221
20 | CC(C)(C)S(=O)(=O)Nc1ccc(-c2c(C#N)c3ccc(Oc4ncccn4)cc3n2C2CCC2)cn1 [compound 268, N-{5-[3-cyano-1-cyclobutyl-6-(pyrimidin-2-yloxy)-1H-indol-2-yl]pyridin-2-yl}-2-methylpropane-2-sulfonamide] | < 500 | 275 to 277
21 | Cc1ccc2cc(-c3ccc(S(=O)(=O)NC(CF)CF)cn3)n(C3CCC3)c2c1 [compound 511, 6-(1-cyclobutyl-6-methyl-1H-indol-2-yl)-N-(1,3-difluoropropan-2-yl)pyridine-3-sulfonamide] | < 500 | 137 to 139
